Laboratory results published in patent publication US5908841A, “5,11-dihydro-6H-dipyrido[3,2-b:2',3'-e]azepine-6-ones and their use in the prevention of treatment of HIV infection” (priority 1998, dated 1999).

target: T1, HIV-1 reverse transcriptase, wild type (WT) (Human immunodeficiency virus type 1 group M subtype B, UniProt P03367); assay: Reverse Transcriptase Assay, wild type (WT) enzyme (RNA-dependent DNA polymerase activity; poly r(C)/oligo d(G), 3H-dGTP); type: biochemical, HIV-1 (LAV strain); settings: wild type (WT) RT
T1 construct: Reverse transcriptase enzyme from the LAV strain of Human Immunodeficiency Virus (HIV-1); made in house; host or cells: Escherichia coli JM109 (clone pBRTprtl+ in vector pIBI21)
From the text: Utilizing the Reverse Transcriptase (RT) Assay described below, compounds can be tested for their ability to inhibit the RNA-dependent DNA polymerase activity of HIV-1 RT. Certain specific compounds described in the Examples which appear below, were so tested.
Among the enzymes for which Human Immunodeficiency Virus (HIV-1) encodes is a reverse transcriptase (1), so-named because it transcribes a DNA copy from an RNA template. This activity can be quantitatively measured in a cell-free enzyme assay, which has been previously described (2), and is based upon the observation that reverse transcriptase is able to use a synthetic template [poly r(C) primed with oligo d(G)] to transcribe a radio-labelled, acid-precipitable DNA strand utilizing ^3 H-dGTP as a substrate. The assay described below utilizes the wild type (WT) enzyme, which is the predominant form of the enzyme observed in patients infected with HIV-1. Utilization of mutant RT enzymes (Y181C and Y181L, prepared by site-directed mutagenesis in which the tyrosine residue at codon 181 has been replaced by a cysteine or a leucine residue, respectively) and analogous assay conditions allows compounds to be evaluated for their effectiveness at inhibiting these mutant enzymes.
a) Preparation of the wild type enzyme Reverse transcriptase enzyme from the LAV strain of Human Immunodeficiency Virus (HIV-1) (1) was isolated from the bacterial strain JM109 (3) expressing the DNA clone pBRTprtl+ (2) which is under the control of the lac promotor in the expression vector pIBI21 (4). An overnight culture grown in 2XYT medium (37° C., 225 rpm) (5) supplemented with 100 μg/mL ampicillin for positive selection is inoculated at a 1:40 dilution into M9 medium supplemented with 10 μg/mL thiamine, 0.5% casamino acids, and 50 μg/mL ampicillin (5). The culture is incubated (37° C., 225 rpm) until it reaches an OD540 of 0.3-0.4. At that time the repressor inhibitor IPTG (isopropyl β-D-thiogalactopyranoside) is added to 0.5 mM, and the mixture is incubated for 2 additional hours. Bacteria are pelleted, resuspended in a 50 mM Tris, 0.6 mM EDTA, 0.375M NaCl buffer and digested by the addition of lysozyme (1 mg/mL) for 30 minutes on ice. The cells are lysed by the addition of 0.2% NP-40 and brought to 1M NaCl.
After removal of the insoluble debris by centrifugation, the protein is precipitated by the addition of 3 volumes of saturated aqueous ammonium sulfate. The enzyme is pelleted, resuspended in RT buffer (50 mM Tris pH 7.5, 1 mM EDTA, 5 mM DTT, 0.1% NP-40, 0.1M NaCl, and 50% glycerol), and stored at -70° C. for further use.
b) Composition of 2× concentrated stock reaction mixture
[poly r(C)/oligo d(G)] (5:1)
The 2× concentrated stock reaction mixture is aliquoted and stored at -20° C. The mixture is stable and thawed for use in each assay. This enzyme assay has been adapted to a 96 well microtiter plate system, and has been previously described (6). Tris buffer (50 mM, pH 7.4), vehicle (solvent diluted to match the compound dilution), or compounds in vehicle are dispensed into 96-well microtiter plates (10 μL/well; 3 wells/compound). The HIV-1 RT enzyme is thawed, diluted in 50 mM Tris pH 7.4 so that fifteen μL of diluted enzyme contain 0.001 Unit (one unit is that amount of enzyme to transform 1 micromole of substrate per minute at 25° C.), and fifteen μL are dispensed per well. Twenty μL of 0.12-0.5M EDTA are added to the first three wells of the microtiter plate. EDTA chelates the Mg^++ present and prevents reverse transcription. This group serves as background polymerization which is subtracted from all other groups. Twenty-five μl of the 2× reaction mixture are added to all wells and the assay is allowed to incubate at room temperature for 60 minutes. The assay is terminated by precipitating the DNA in each well with 50 μL of 10% trichloracetic acid (TCA) (10% w/v) in sodium pyrophosphate (1% w/v). […]

| SMILES | inhibition at 1 µM [%] |
| --- | --- |
| CCC1c2ncccc2N(C)C(=O)c2ccc[n+]([O-])c21 (stereo not shown) [Example 1, 5,11-Dihydro-11-ethyl-5-methyl-10-oxo-6H-dipyrido[3,2-b:2',3'-e]azepin-6-on] | 68 |
| CCC1c2ncccc2C(=O)N(C)c2cccnc21 (stereo not shown) [Example 2, 5,11-Dihydro-11-ethyl-5-methyldipyrido[3,2-b:2',3'-e]azepine-6-one] | 62 |
| CCCC1c2ncccc2C(=O)N(C)c2cccnc21 (stereo not shown) [Example 3, 5,11-Dihydro-11-propyl-5-methyldipyrido[3,2-b:2',3'-e]azepine-6-one] | 64 |
| CCC1(C)c2ncccc2C(=O)N(C)c2cccnc21 (stereo not shown) [Example 4, 5,11-Dihydro-11-ethyl-11-methyl-5-methyldipyrido[3,2-b:2',3'-e]azepine-6-one] | 68 |
| CCC1(CC)c2ncccc2C(=O)N(C)c2cccnc21 [Example 5, 5,11-Dihydro-11-diethyl-5-methyldipyrido[3,2-b:2',3'-e]azepine-6-one] | 62 |
| CN1C(=O)c2cccnc2C2(CCCC2)c2ncccc21 [Example 6, 5,11-Dihydro-11-spirocyclopentyl-5-methyldipyrido[3,2-b:2',3'-e]azepine-6-one] | 62 |
| CCC1c2nc(OC)ccc2N(C)C(=O)c2ccc[n+]([O-])c21 (stereo not shown) [Example 7, 5,11-Dihydro-11-ethyl-2-methoxy-5-methyl-10-oxodipyrido[3,2-b:2',3'-e]azepine-6-one] | 75 |
| CCC1c2ncccc2C(=O)N(C)c2ccc(OC)nc21 (stereo not shown) [Example 8, 5,11-Dihydro-11-ethyl-2-methoxy-5-methyl-dipyrido[3,2-b:2',3'-e]azepine-6-one] | 84 |
| CCC1(CC)c2ncccc2C(=O)N(C)c2ccc(OC)nc21 [Example 9, 5,11-Dihydro-11-diethyl-2-methoxy-5-methyl-dipyrido[3,2-b:2',3'-e]azepine-6-one] | 66 |
| COc1ccc2c(n1)C(SC)c1c(ccc[n+]1[O-])C(=O)N2C (stereo not shown) [Example 10, 5,11-Dihydro-11-methylthio-2-methoxy-5-methyl-10-oxodipyrido[3,2-b:2',3'-e]azepine-6-one] | 91 |
| COc1ccc2c(n1)C(SC)c1ncccc1C(=O)N2C (stereo not shown) [Example 11, 5,11-Dihydro-11-methylthio-2-methoxy-5-methyl-dipyrido[3,2-b:2',3'-e]azepine-6-one] | 80 |
| COc1ccc2c(n1)C(C)(SC)c1ncccc1C(=O)N2C (stereo not shown) [Example 12, 5,11-Dihydro-11-methyl-11-methylthio-2-methoxy-5-methyl-dipyrido[3,2-b:2',3'-e]azepine-6-one] | 41 |
| CCC1c2ncccc2C(=O)N(C)c2ccc(-c3cn[nH]c3)nc21 (stereo not shown) [Example 13, 5,11-Dihydro-11-ethyl-2-(4-pyrazolyl)-5-methyl-dipyrido[3,2-b:2',3'-e]azepine-6-one] | 80 |
